29 compounds from patent US8796268B2, “Heteroaryls and uses thereof” (Millennium Pharmaceuticals, Inc., priority 2010, dated 2014) can be followed below.

What all share (type): biochemical
One test concerns the target T1, Human PI3K beta (Homo sapiens, UniProt P42338).
T1 construct: His (N); host or cells: SF9 insect cells (baculovirus)
The test is described as follows: Human PI3K beta enzyme assay (HTRF). The following applies: concentration not given, b1387 states 1.1 μM for PI3K α and β; for inhibition at 1.1 µM: read-out: p110 beta Percent Inhibition. In outline: (§1)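 Compounds were mixed with 25 uM ATP, then with 3.5 uM di-C8 PI(4,5)P2 and His-tagged PI3K isoform (β 5.25 nM, δ 0.75 nM, γ 5 nM) at pH 7.00. After 30 min at room temperature, EDTA stopped the reaction and PIP3 was measured by HTRF over 1 h.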
On the technique in general: In TR-FRET formats the signal depends on donor and acceptor labels being close together.

The target in the next test is T2, Human PI3K alpha (Homo sapiens, UniProt P42336).
T2 construct: His (N); host or cells: SF9 insect cells (baculovirus)
The test is described as follows: Human PI3K alpha enzyme assay (HTRF). The note with it: concentration not given, b1387 states 1.1 μM for PI3K α and β; for inhibition at 1.1 µM: read-out: p110 alpha Percent Inhibition.

The target of another test is T3, Human PI3K delta (Homo sapiens, UniProt O00329).
T3 construct: His (N); host or cells: SF9 insect cells (baculovirus)
The test is described as follows: Human PI3K delta enzyme assay (HTRF). The following applies: concentration not given, b1389 states 1.0 μM for PI3K δ and γ; for inhibition at 1 µM: read-out: p110 delta Percent Inhibition. Summed up: as §1

A further test has as its target T4, Human PI3K gamma (Homo sapiens, UniProt P48736).
T4 construct: His (N); host or cells: SF9 insect cells (baculovirus)
The test is described as follows: Human PI3K gamma enzyme assay (HTRF). The following applies: concentration not given, b1389 states 1.0 μM for PI3K δ and γ; for inhibition at 1 µM: read-out: p110 gamma Percent Inhibition. Summed up: as §1

T4 sequence (P48736 whole entry): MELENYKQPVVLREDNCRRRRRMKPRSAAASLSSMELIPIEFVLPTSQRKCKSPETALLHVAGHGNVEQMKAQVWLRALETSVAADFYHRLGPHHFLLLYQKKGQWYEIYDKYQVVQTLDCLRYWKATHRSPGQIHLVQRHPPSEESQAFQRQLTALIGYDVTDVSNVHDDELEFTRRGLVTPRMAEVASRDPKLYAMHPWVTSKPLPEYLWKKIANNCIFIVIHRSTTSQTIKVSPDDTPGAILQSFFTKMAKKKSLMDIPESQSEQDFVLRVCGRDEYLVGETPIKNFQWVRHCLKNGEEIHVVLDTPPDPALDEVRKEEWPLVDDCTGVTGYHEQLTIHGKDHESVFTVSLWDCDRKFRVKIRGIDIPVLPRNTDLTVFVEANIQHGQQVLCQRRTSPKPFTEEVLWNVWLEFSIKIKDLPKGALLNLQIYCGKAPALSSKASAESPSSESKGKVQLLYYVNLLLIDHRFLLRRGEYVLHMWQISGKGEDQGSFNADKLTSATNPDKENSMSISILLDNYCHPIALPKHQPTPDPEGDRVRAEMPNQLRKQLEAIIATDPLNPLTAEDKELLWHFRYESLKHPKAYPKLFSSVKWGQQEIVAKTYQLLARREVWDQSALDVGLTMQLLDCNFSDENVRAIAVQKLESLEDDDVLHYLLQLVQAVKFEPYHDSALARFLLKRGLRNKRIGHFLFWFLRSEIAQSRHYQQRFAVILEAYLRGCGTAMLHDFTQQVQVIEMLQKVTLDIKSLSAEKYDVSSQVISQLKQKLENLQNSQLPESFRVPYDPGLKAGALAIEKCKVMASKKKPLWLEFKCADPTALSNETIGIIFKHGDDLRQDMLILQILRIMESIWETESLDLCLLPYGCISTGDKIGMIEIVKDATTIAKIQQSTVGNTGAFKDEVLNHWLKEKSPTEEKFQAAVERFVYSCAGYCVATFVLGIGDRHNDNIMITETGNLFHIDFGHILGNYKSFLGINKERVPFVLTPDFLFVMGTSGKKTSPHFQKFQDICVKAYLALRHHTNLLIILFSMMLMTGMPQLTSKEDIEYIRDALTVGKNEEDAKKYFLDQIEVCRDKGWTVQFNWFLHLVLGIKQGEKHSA
T2 sequence (P42336 whole entry): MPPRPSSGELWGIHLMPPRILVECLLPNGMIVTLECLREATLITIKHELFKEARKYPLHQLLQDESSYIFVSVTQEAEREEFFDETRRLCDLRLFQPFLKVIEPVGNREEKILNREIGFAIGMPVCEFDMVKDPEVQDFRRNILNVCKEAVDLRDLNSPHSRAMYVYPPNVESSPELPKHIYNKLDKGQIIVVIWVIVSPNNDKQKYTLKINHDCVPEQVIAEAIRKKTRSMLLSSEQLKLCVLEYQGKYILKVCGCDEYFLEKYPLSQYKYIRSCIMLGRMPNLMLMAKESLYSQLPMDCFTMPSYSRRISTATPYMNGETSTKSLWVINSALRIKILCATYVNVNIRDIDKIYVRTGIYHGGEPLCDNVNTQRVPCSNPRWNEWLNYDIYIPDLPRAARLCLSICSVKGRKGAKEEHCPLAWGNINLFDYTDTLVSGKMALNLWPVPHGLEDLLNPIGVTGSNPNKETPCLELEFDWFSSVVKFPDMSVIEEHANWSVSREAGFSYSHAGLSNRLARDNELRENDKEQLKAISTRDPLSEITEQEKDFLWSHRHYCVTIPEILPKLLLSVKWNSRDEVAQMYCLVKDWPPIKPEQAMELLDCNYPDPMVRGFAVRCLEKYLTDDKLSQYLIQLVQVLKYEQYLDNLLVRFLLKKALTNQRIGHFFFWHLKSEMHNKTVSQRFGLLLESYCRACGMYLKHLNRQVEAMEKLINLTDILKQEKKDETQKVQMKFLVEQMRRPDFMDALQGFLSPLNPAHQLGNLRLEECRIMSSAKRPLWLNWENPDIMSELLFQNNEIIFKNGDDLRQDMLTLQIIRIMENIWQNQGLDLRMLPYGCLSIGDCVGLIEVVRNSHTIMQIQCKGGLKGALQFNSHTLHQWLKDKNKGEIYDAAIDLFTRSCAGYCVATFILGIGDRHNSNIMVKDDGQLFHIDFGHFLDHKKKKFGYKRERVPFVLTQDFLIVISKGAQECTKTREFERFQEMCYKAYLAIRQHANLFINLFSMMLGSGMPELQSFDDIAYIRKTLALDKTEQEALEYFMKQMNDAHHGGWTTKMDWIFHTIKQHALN
T2 sequence (P27986 whole entry partner): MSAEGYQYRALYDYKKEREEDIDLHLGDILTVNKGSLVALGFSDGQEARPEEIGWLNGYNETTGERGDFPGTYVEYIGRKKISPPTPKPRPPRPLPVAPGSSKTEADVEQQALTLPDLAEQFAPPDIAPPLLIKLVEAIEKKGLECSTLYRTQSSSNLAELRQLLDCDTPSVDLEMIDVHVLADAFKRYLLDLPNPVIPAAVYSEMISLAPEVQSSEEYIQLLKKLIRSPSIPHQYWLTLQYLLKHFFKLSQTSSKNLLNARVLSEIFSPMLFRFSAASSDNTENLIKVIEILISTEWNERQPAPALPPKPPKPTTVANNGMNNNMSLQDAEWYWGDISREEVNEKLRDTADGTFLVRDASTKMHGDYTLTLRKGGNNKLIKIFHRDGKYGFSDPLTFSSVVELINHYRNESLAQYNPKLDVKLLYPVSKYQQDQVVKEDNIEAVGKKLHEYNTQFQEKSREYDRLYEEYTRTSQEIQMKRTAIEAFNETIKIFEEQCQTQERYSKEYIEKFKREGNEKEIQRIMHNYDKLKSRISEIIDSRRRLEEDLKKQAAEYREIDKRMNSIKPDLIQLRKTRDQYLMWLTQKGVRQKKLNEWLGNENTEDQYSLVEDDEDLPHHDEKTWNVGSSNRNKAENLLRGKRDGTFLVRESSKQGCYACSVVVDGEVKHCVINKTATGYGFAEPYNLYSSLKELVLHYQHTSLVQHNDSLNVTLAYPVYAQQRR
T3 sequence (O00329 whole entry): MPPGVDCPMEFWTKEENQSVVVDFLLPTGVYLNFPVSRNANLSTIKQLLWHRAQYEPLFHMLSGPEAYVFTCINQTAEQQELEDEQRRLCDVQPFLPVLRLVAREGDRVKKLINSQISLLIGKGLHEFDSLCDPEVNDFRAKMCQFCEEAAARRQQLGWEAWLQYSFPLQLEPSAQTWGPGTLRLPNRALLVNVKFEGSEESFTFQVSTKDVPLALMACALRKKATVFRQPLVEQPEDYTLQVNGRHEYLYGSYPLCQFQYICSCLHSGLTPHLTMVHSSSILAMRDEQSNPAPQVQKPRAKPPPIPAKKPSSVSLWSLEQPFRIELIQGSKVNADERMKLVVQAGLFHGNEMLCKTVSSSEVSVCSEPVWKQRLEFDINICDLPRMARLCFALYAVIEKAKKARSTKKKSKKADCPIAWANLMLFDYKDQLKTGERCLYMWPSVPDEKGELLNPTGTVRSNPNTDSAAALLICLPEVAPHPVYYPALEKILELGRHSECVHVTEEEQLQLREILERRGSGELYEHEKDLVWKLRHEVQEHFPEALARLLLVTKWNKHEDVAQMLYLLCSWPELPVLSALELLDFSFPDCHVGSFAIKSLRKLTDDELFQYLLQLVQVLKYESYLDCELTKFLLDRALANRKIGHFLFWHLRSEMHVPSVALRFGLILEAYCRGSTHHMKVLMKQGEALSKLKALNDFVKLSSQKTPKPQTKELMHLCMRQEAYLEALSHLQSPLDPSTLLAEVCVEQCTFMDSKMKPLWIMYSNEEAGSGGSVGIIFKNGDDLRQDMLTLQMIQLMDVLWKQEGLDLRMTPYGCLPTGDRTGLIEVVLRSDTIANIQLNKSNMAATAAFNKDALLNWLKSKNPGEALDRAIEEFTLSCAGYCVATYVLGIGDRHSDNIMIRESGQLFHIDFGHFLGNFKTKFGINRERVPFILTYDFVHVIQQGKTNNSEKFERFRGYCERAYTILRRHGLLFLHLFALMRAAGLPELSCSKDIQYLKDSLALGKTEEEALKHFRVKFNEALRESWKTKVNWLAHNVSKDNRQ
T3 sequence (P27986 whole entry partner): as the sequence (P27986 whole entry partner) above
T1 sequence (P42338 whole entry): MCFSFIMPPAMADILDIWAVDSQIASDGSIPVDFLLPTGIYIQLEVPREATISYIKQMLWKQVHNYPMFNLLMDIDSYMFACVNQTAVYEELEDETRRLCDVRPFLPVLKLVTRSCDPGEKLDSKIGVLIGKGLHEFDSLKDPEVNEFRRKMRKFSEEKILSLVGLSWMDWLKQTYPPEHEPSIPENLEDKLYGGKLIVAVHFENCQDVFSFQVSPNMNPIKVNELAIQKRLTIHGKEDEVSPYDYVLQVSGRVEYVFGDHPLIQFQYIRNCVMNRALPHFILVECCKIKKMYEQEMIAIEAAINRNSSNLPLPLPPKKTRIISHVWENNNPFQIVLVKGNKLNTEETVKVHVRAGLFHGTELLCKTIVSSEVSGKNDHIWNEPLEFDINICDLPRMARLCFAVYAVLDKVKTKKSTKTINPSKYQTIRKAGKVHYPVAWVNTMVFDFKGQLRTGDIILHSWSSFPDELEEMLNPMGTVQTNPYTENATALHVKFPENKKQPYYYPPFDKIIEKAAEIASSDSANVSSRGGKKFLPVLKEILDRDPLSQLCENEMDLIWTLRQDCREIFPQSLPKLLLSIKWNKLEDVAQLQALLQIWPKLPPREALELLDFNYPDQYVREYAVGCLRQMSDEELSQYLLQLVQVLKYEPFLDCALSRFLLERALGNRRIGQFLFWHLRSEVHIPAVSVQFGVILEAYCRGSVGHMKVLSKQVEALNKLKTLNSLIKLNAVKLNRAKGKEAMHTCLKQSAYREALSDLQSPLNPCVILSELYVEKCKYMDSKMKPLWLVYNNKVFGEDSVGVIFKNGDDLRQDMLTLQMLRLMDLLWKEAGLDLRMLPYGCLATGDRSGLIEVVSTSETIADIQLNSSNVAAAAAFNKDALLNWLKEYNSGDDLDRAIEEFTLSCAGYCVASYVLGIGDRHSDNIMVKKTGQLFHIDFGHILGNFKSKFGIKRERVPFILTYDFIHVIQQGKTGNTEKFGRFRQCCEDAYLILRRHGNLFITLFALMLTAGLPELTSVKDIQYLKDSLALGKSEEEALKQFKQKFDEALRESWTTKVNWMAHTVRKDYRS
T1 sequence (P27986 whole entry partner): as the sequence (P27986 whole entry partner) above

As for `COc1cc(C(O)c2cc(-c3ccnc(C)c3)sc2-c2nnc[nH]2)c(F)cc1Cl` (centres unmarked) [Compound 285], the “p110 beta Percent Inhibition” value at Human PI3K beta is recorded as 83%. Besides, the “p110 alpha Percent Inhibition” value at Human PI3K alpha was 16%. The “p110 delta Percent Inhibition” value on Human PI3K delta was determined as 77%. Further, the “p110 gamma Percent Inhibition” value on Human PI3K gamma is listed as 18%.

As to `CC(=O)Nc1cc(-c2cc(C(c3ccc(Cl)cc3)N3CC(O)C3)c(-c3nnc[nH]3)s2)ccn1` (centres unmarked) [Compound 201], the figures for the inhibition at 1.1 µM at Human PI3K beta and at Human PI3K alpha were 105% and 74%, respectively. Moreover, the inhibition at 1 µM on Human PI3K delta came to 110%; on Human PI3K gamma, 37%.

`COC(=O)Nc1cc(-c2sc(-c3nnc[nH]3)c(Cc3ccc4ccccc4c3)c2C#N)ccn1` [Compound 179]: the values for the inhibition at 1.1 µM on Human PI3K beta and at Human PI3K alpha were 60% and 29%, respectively. The inhibition at 1 µM stood at 89% on Human PI3K delta and 5% on Human PI3K gamma.

For the compound `CC(=O)Nc1cc(-c2cc(C(c3ccc(Cl)cc3)N3CC(N)C3)c(-c3nnc[nH]3)s2)ccn1` (centres unmarked) [Compound 200], the figures for the inhibition at 1.1 µM on Human PI3K beta and on Human PI3K alpha were 118% and 101%, respectively. Also, the inhibition at 1 µM at Human PI3K delta worked out at 111%; on Human PI3K gamma, 60%.

Take `O=C(O)c1cc(-c2sc(-c3ccncc3)nc2Cc2ccc(Cl)cc2)[nH]n1` [Compound 262, 5-(4-(4-chlorobenzyl)-2-(pyridin-4-yl)thiazol-5-yl)-1H-pyrazole-3-carboxylic acid]: the results for the inhibition at 1.1 µM on Human PI3K beta and on Human PI3K alpha were 69% and 0%, respectively. For the same compound, the inhibition at 1 µM at Human PI3K delta was 12%; at Human PI3K gamma, 4%.

As for `CC(=O)Nc1cc(-c2nc(Cc3ccc4ccccc4c3)c(C(=O)O)s2)ccn1` [Compound 177, 2-(2-acetamidopyridin-4-yl)-4-(naphthalen-2-ylmethyl)thiazole-5-carboxylic acid], the inhibition at 1.1 µM at Human PI3K beta turned out to be 100%; at Human PI3K alpha, 79%. The inhibition at 1 µM at Human PI3K delta was 106%; on Human PI3K gamma, 34%.

For the compound `CC(=O)Nc1cc(-c2cc(C(c3ccc(Cl)cc3)N3CCNCC3)c(-c3nnc[nH]3)s2)ccn1` (centres unmarked) [Compound 154], the inhibition at 1.1 µM on Human PI3K beta was found to be 108%; on Human PI3K alpha it was 79%. In addition, the results for the inhibition at 1 µM at Human PI3K delta and at Human PI3K gamma were 108% and 39%, respectively.

Turning to `CC(c1ccc(Cl)c(Cl)c1)c1c(C(=O)O)sc(N2CCOCC2)c1C#N` (centres unmarked) [Compound 366], at Human PI3K beta, the “p110 beta Percent Inhibition” value was determined as 113%. Also, the “p110 alpha Percent Inhibition” value on Human PI3K alpha was found to be 66%. For the same compound, on Human PI3K delta, the “p110 delta Percent Inhibition” value was 113%. On Human PI3K gamma, the “p110 gamma Percent Inhibition” value is reported as 77%.

With `COC(=O)Nc1cc(-c2sc(-c3nnc[nH]3)c(C(O)c3ccc(Cl)cc3)c2C#N)ccn1` (centres unmarked) [Compound 195, Methyl {4-[4-[(4-chlorophenyl)(hydroxy)methyl]-3-cyano-5-(4H-1,2,4-triazol-3-yl)-2-thienyl]pyridin-2-yl}carbamate], the figures for the inhibition at 1.1 µM on Human PI3K beta and at Human PI3K alpha were 74% and 52%, respectively. Besides, the figures for the inhibition at 1 µM on Human PI3K delta and at Human PI3K gamma were 88% and 8%, respectively.

With `COc1cc(C(O)c2cc(-c3ccnnc3)sc2-c2nnc[nH]2)c(F)cc1Cl` (centres unmarked) [Compound 168], the “p110 beta Percent Inhibition” value at Human PI3K beta stood at 107%. Moreover, the “p110 alpha Percent Inhibition” value at Human PI3K alpha is reported as 23%. Besides, the “p110 delta Percent Inhibition” value at Human PI3K delta was 110%. On Human PI3K gamma, the “p110 gamma Percent Inhibition” value was determined as 58%.

Consider `CN(C)CCC(c1ccc(Cl)c(Cl)c1)c1c(C(=O)O)sc(N2CCOCC2)c1C#N` (centres unmarked) [Compound 331, 4-cyano-3-[1-(3,4-dichlorophenyl)-3-(dimethylamino)propyl]-5-(morpholin-4-yl)thiophene-2-carboxylic acid], for which the inhibition at 1.1 µM at Human PI3K beta was found to be 105%; at Human PI3K alpha it was 37%. In addition, the inhibition at 1 µM at Human PI3K delta was 107%; on Human PI3K gamma, 51%.

Consider `CC(=O)Nc1cc(-c2cc(C(c3ccc(Cl)cc3)N(C)C3CN(C)C3)c(-c3nnc[nH]3)s2)ccn1` (centres unmarked) [Compound 160], for which the figures for the inhibition at 1.1 µM on Human PI3K beta and at Human PI3K alpha were 101% and 74%, respectively. The results for the inhibition at 1 µM on Human PI3K delta and at Human PI3K gamma were 107% and 20%, respectively.

As for `OC(c1cnc2ccccc2c1)c1cc(-c2ccncc2)sc1-c1nnc[nH]1` (centres unmarked) [Compound 132], the values for the inhibition at 1.1 µM at Human PI3K beta and at Human PI3K alpha were 103% and 45%, respectively. Further, the inhibition at 1 µM on Human PI3K delta is 77%; on Human PI3K gamma, 53%.

Take `CC(=O)Nc1cc(-c2cc(C(c3ccc(Cl)cc3)N3CCC[C@H]3CO)c(-c3nnc[nH]3)s2)ccn1` (single isomer, unassigned) [Compound 259]: the inhibition at 1.1 µM at Human PI3K beta came to 100%. On Human PI3K alpha, the “p110 alpha Percent Inhibition” value is 69%. The inhibition at 1 µM on Human PI3K delta was determined as 101%. Further, the “p110 gamma Percent Inhibition” value at Human PI3K gamma was 25%.

Turning to `N#Cc1c(N2CCOCC2)sc(C(=O)O)c1Cn1cnc2ccccc2c1=O` [Compound 294, 4-cyano-5-(morpholin-4-yl)-3-[(4-oxoquinazolin-3(4H)-yl)methyl]thiophene-2-carboxylic acid], the values for the inhibition at 1.1 µM at Human PI3K beta and on Human PI3K alpha were 94% and 47%, respectively. The inhibition at 1 µM on Human PI3K delta was determined as 101%; at Human PI3K gamma it was 35%.

As for `CCN(CC)C(c1ccc(Cl)cc1)c1cc(-c2ccnc(Cl)c2)sc1-c1nnc[nH]1` (centres unmarked) [Compound 243], the results for the inhibition at 1.1 µM on Human PI3K beta and on Human PI3K alpha were 66% and 12%, respectively. Besides, the inhibition at 1 µM on Human PI3K delta was 45%; at Human PI3K gamma, 4%.

Consider `CC(=O)Nc1cc(-c2cc(C(N=[N+]=[N-])c3ccc(Cl)cc3)c(-c3nnc[nH]3)s2)ccn1` (centres unmarked) [Compound 211], for which the inhibition at 1.1 µM on Human PI3K beta and on Human PI3K alpha was 111% throughout. Further, the figures for the inhibition at 1 µM at Human PI3K delta and on Human PI3K gamma were 106% and 13%, respectively.

With `N#Cc1c(N2CCOCC2)sc(C(N)=O)c1Cc1ccc2ccccc2c1` [Compound 327, 4-cyano-5-(morpholin-4-yl)-3-(2-naphthylmethyl)thiophene-2-carboxamide], the inhibition at 1.1 µM was found to be 109% at Human PI3K beta and 34% on Human PI3K alpha. For the same compound, the inhibition at 1 µM at Human PI3K delta stood at 109%; on Human PI3K gamma, 22%.

Take `N#Cc1c(N2CCOCC2)sc(C(=O)O)c1C(N)c1ccc(Cl)c(Cl)c1` (centres unmarked) [Compound 291]: the inhibition at 1.1 µM at Human PI3K beta is 107%; at Human PI3K alpha it was 36%. The results for the inhibition at 1 µM on Human PI3K delta and at Human PI3K gamma were 105% and 57%, respectively.

Regarding `Cc1nc2cc(Cc3nc(N4CCOCC4)sc3C(=O)O)ccc2s1` [Compound 289], the inhibition at 1.1 µM at Human PI3K beta came to 32%; on Human PI3K alpha, 11%. Further, the results for the inhibition at 1 µM at Human PI3K delta and at Human PI3K gamma were 32% and 10%, respectively.

Regarding `OC(c1ccccc1Cl)c1cc(-c2ccncc2)sc1-c1nnc[nH]1` (centres unmarked) [Compound 217], the inhibition at 1.1 µM on Human PI3K beta turned out to be 74%; on Human PI3K alpha, 30%. In addition, the inhibition at 1 µM on Human PI3K delta is 60%; on Human PI3K gamma, 24%.

For the compound `CC(=O)Nc1cc(-c2cc(C(c3ccc(Cl)cc3)N3CC4(COC4)C3)c(-c3nnc[nH]3)s2)ccn1` (centres unmarked) [Compound 247], the values for the inhibition at 1.1 µM at Human PI3K beta and at Human PI3K alpha were 105% and 83%, respectively. Further, the inhibition at 1 µM came to 104% at Human PI3K delta and 21% on Human PI3K gamma.

With `CC(=O)Nc1cc(-c2cc(C(c3ccc(Cl)cc3)N3CC[C@@H](CO)C3)c(-c3nc[nH]n3)s2)ccn1` (some centres unmarked) [Compound 223], the inhibition at 1.1 µM worked out at 94% at Human PI3K beta and 67% at Human PI3K alpha. The values for the inhibition at 1 µM at Human PI3K delta and at Human PI3K gamma were 102% and 21%, respectively.

On to `OC(c1cc(-c2ccncc2)sc1-c1nnc[nH]1)c1ccnc2ccccc12` (centres unmarked) [Compound 175], for which the inhibition at 1.1 µM at Human PI3K beta turned out to be 85%; on Human PI3K alpha, 19%. In addition, the figures for the inhibition at 1 µM on Human PI3K delta and at Human PI3K gamma were 36% and 7%, respectively.

Consider `c1ccc2cc(Cc3cc(N4CCOCC4)sc3-c3nnn[nH]3)ccc2c1` [Compound 356], for which the inhibition at 1.1 µM was 95% on Human PI3K beta and 11% on Human PI3K alpha. Also, the inhibition at 1 µM at Human PI3K delta worked out at 72%; at Human PI3K gamma, 23%.

For `Nc1nccc(-c2sc(-c3ccncc3)nc2Cc2ccc(Cl)cc2)n1` [Compound 150, 4-(4-(4-chlorobenzyl)-2-(pyridin-4-yl)thiazol-5-yl)pyrimidin-2-amine], the figures for the inhibition at 1.1 µM on Human PI3K beta and on Human PI3K alpha were 54% and 2%, respectively. Also, the inhibition at 1 µM was 35% on Human PI3K delta and 6% at Human PI3K gamma.

As for `CC(=O)Nc1cc(-c2cc(C(NCC(F)(F)F)c3ccc(Cl)cc3)c(-c3nnc[nH]3)s2)ccn1` (centres unmarked) [Compound 135], the inhibition at 1.1 µM at Human PI3K beta came out at 87%; at Human PI3K alpha, 78%. Moreover, the inhibition at 1 µM on Human PI3K delta came to 99%; at Human PI3K gamma it was 8%.

Consider `CC(=O)Nc1cc(-c2sc(-c3nnc[nH]3)c(C(c3ccc(Cl)cc3)N3CCNCC3)c2C#N)ccn1` (centres unmarked) [Compound 218], for which the inhibition at 1.1 µM on Human PI3K beta was 102%; at Human PI3K alpha, 61%. In addition, the values for the inhibition at 1 µM on Human PI3K delta and on Human PI3K gamma were 97% and 14%, respectively.

For the compound `OC(c1ccc(-c2cncnc2)cc1)c1cc(-c2ccncc2)sc1-c1nnc[nH]1` (centres unmarked) [Compound 236], the inhibition at 1.1 µM came to 53% on Human PI3K beta and 11% on Human PI3K alpha. The inhibition at 1 µM on Human PI3K delta worked out at 48%; at Human PI3K gamma, 10%.
